System: rice (Oryza sativa)
Experiment: Test B flooded paddy: rice
Format: in vivo
Conditions: Flood, applied to paddy water at 2-leaf stage, visually evaluated after 13 to 15 days
Summary of the method: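 Two-leaf-stage plants, pots flooded (3 cm above soil) and treated through the water, which stayed at that depth. After 13–15 days in greenhouse conditions, visual assessment versus controls: 0 is no effect, 100 complete control, dash means no result.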

Row | SMILES | Plant response rating, Rice (0 to 100 scale, 0 is no effect, 100 is complete control) (250 g ai/ha) | Plant response rating, Rice (0 to 100 scale, 0 is no effect, 100 is complete control) (125 g ai/ha)
1 | CCCc1nn(-c2ccc(F)cc2)nc1Cc1ccnc(C(F)(F)F)c1 [Compound 153] | 60 | 
2 | Cc1nn(-c2ccc(C(F)(F)F)c(F)c2)nc1Cc1ccnc(C(F)(F)F)c1 [Compound 162] |  | 25

— US9302999B2, “Substituted triazoles as herbicides” (E. I. DU PONT DE NEMOURS AND COMPANY, priority 2012, dated 2016)
